Laboratory results reported in patent publication US20070274946A1, “Tolerance to Graft Prior to Thymic Reactivation” (Norwood Immunoloty, Ltd., priority 1999, published 2007).

What was measured:
[1] = Chemical castration versus surgical castration after cyclophosphamide T cell depletion; format: in vivo, mice
Excerpt: FIG. 9: Changes in thymus (open bars), spleen (gray bars) and lymph node (black bars) cell numbers following treatment with cyclophosphamide, a chemotherapy agent, and surgical or chemical castration performed on the same day. Note the rapid expansion of the thymus in castrated animals when compared to the non-castrate (cyclophosphamide alone) group at 1 and 2 weeks post-treatment. In addition, spleen and lymph node numbers of the castrate group were well increased compared to the cyclophosphamide alone group. (n=3-4 per treatment group and time point).
Old mice (e.g., 2 years old) were injected with cyclophosphamide (200 mg/kg body wt over two days) and castrated.
FIG. 9 illustrates the use of chemical castration compared to surgical castration in enhancement of T cell regeneration. […] The enhancing effects were equivalent on thymic expansion and also the recovery of spleen and lymph node. The kinetics of chemical castration are slower than surgical, that is, mice take about 3 weeks longer to decrease their circulating sex steroid levels. However, chemical castration is still as effective as surgical castration and can be considered to have an equivalent effect.

[2] = Chemical castration of aged female Balb/cJ mice, radioimmunoassay of plasma sex steroids; format: in vivo; conditions: 10 mg/kg s.c., 1 month slow release formulation
Experimental: To do this, aged (i.e., 2 year old) female Balb/cJ (H-2d) mice are either surgically castrated (e.g., by removing the ovaries according to standard methods), or are chemically castrated. For chemical castration, mice are injected subcutaneously with 10 mg/kg Lupron (a GnRH agonist) as a 1 month slow release formulation. Alternatively mice are injected with a GnRH antagonist (e.g., Cetrorelix or Abarelix). Confirmation of loss of sex steroids is performed by standard radioimmunoassay of plasma samples following manufacturer's instructions, and may be monitored throughout the procedure.

[3] = Sex steroid ablation therapy of the patient with an LHRH agonist (Example 6); format: in vivo, human; conditions: single dose effective for 3 months
Experimental: The patient was given sex steroid ablation therapy in the form of delivery of an LHRH agonist. This was given in the form of either Leucrin (depot injection; 22.5 mg) or Zoladex® (implant; 10.8 mg), either one as a single dose effective for 3 months. […] In some cases it is also necessary to deliver a suppresser of adrenal gland production of sex steroids. Cosudex® (5 mg/day or 50 mg/day) may also be given as one tablet per day for the duration of the sex steroid ablation therapy. Alternatively, the patient is given a GnRH antagonist, e.g., Cetrorelix or Abarelix as a subcutaneous injection

[4] = chronic administration; cited from earlier work
[5] = IL-7 administration with or without castration after allogeneic HSCT, thymic cellularity; format: in vivo, mice
Excerpt: Male C57BL/6J (B6, H-2b), C3FeB6F1/J([B6 3 C3H]F1; H-2b/k), B10.BR (H-2k), B6D2F1/J (H-2b/d), CBA/J (H-2k), Balb/c (H2-d), IL7−/− and KGF−/− mice were obtained from the Jackson Laboratory (Bar Harbor, Maine) and used in experiments when they were between 8 and 12 weeks of age. KGF−/− and IL7−/− were used between 4 and 7 months of age. HSCT protocols were approved by the Memorial Sloan-Kettering Cancer Center Institutional Animal Care and Use Committee. The BM cells were removed aseptically from femurs and tibias. Donor BM was depleted of T cells by incubation with anti-Thy-1.2 for 30 minutes at 4° C. followed by incubation with Low-TOX-M rabbit complement (Cedarlane Laboratories, Hornby, ON, Canada) for 1 hour at 37° C. Splenic T cells (for GVHD analysis) were obtained by purification over a nylon wool column followed by red cell removal with ammonium chloride red cell lysis buffer. Cells (5×10^6 BM cells with or without splenic T cells and leukemia cells) were resuspended in Dulbecco modified essential medium (Life Technologies, Grand Island, N.Y.) and transplanted by tail vein infusion (0.25 mL total volume) into lethally irradiated recipients on day 0. Prior to transplantation, on day 0, recipients received 1300 cGy total body irradiation (^137Cs source) as split dose with 3 hours between doses (to reduce gastrointestinal toxicity). Mice were housed in sterilized microisolator cages and received normal chow and autoclaved hyperchlorinated drinking water (pH 3.0).
IL-7 were either given from days 0 to 13 or 21 to 27 intraperitoneally at 10 μg/day for immune reconstitution studies. PBS was injected into control mice at the same time points.
BM cells, splenocytes or thymocytes were washed in FACS buffer (phosphate buffered saline (PBS)/2% bovine serum albumin (BSA)/0.1% azide) and 1-3×10^6 cells were incubated for 30 minutes at 4° C. with CD16/CD32 FcR block. Cells were then incubated for 30 minutes at 4° C. with primary antibodies and washed twice with FACS buffer. Where necessary, cells were incubated with conjugated Streptavidin for a further 30 minutes at 4° C. The stained cells were resuspended in FACS buffer and analyzed on a FACSCalibur™ flow cytometer (Becton Dickinson, San Jose, Calif.) with CellQuest™ software.

[6] = test system: IL-7-dependent murine pre-B cell line 2E8; experiment: Thymidine incorporation proliferation assay with IL-7-dependent cell line; format: cell-based; conditions: 2E8 cells
Experimental: Tissue culture medium consisted of RPMI 1640 supplemented with 10% heat inactivated fetal calf serum, 100 U/mL penicillin, […] streptomycin, and 2 mM L-glutamine (as well as […] 2-mercaptoethanol for the culture of 32Dp210 cells and proliferation assays).

CCNC(=O)[C@@H]1CCCN1C(=O)[C@H](CCCN=C(N)N)NC(=O)[C@H](CC(C)C)NC(=O)[C@@H](Cc1c[nH]c2ccccc12)NC(=O)[C@H](Cc1ccc(O)cc1)NC(=O)[C@H](CO)NC(=O)[C@H](Cc1c[nH]c2ccccc12)NC(=O)[C@H](Cc1cnc[nH]1)NC(=O)[C@@H]1CCC(=O)N1 [Deslorelin]
additional time to decrease circulating sex steroid levels versus surgical castration ([1]; chemical castration): about 3 weeks | rate of regeneration post-cyclophosphamide treatment compared to surgical castration ([1]; injected for four weeks, T cell regeneration): comparable rate of regeneration | enhancing effects on thymic expansion and recovery of spleen and lymph node versus surgical castration ([1]; post-cyclophosphamide): equivalent

CCNC(=O)[C@@H]1CCCN1C(=O)[C@H](CCCNC(=N)N)NC(=O)[C@H](CC(C)C)NC(=O)[C@@H](CC(C)C)NC(=O)[C@H](Cc1ccc(O)cc1)NC(=O)[C@H](CO)NC(=O)[C@H](Cc1c[nH]c2ccccc12)NC(=O)[C@H](Cc1c[nH]cn1)NC(=O)[C@@H]1CCC(=O)N1 [Lupron, leuprolide acetate]
time post injection to castrate levels (<0.5 ng estrogen/ml) [2]: 3-4 weeks

CC(C)C[C@H](NC(=O)[C@@H](COC(C)(C)C)NC(=O)[C@H](Cc1ccc(O)cc1)NC(=O)[C@H](CO)NC(=O)[C@H](Cc1c[nH]c2ccccc12)NC(=O)[C@H](Cc1cnc[nH]1)NC(=O)[C@@H]1CCC(=O)N1)C(=O)N[C@@H](CCCNC(=N)N)C(=O)N1CCC[C@H]1C(=O)NNC(N)=O [Zoladex, goserelin acetate]
reduction of sex steroid levels [3]: effective in reducing sex steroid levels sufficiently to reactivate the thymus | serum testosterone levels in males [4]: a range normally seen in surgically castrated men | time to sustained suppression of pituitary LH after initiation of therapy [4]: approximately three

IL-7: Recombinant human IL-7 provided by Cytheris
thymic cellularity, combined treatment (castration and IL-7) ([5]; day 14 after allo-HSCT): significantly more cells | thymic cellularity, IL-7 treated sham-castrated versus PBS treated sham-castrated ([5]; day 14 after allo-HSCT, 10 ug/day i.p. days 0-13): no difference | effect of IL-7 treatment combined with castration on thymic cellularity ([5]; day 28 after allo-HSCT): additive effect | thymic cellularity, IL-7 alone group versus control group ([5]; day 28 after allo-HSCT): significantly higher | proliferative effect on murine cells [6]: equal to murine IL-7
